# US11053242B2, “[9,10-dimethoxy-3-(2-methylpropyl)-1H,2H,3H,4H,6H,7H,11BH-pyrido-[2,1-a]isoquinolin-2-yl]methanol and compounds, compositions and methods relating thereto” (Neurocrine Biosciences, Inc., priority 2015, dated 2021)
# Assays:
# [1] = Metabolic pathways in human hepatocytes (fraction metabolized); format: in vitro ADME; conditions: LC-MS/MS of metabolites
# Protocol: To investigate differences in the metabolism of Compound 1-1 and R,R,R-DHTBZ in vitro both compounds were incubated with human hepatocytes and the amounts of metabolites formed via the respective demethylation, oxidation, and glucuronidation pathways were determined by LC-MS/MS. The instrument responses for all metabolites were assumed to be approximately equal. For both compounds the percentage of overall in vitro metabolism due to the respective pathways (fraction metabolized, fm) was calculated by dividing the LC/MS peak area of the metabolite(s) formed via a given pathway by the sum of the peak areas of all metabolites monitored. […] This demethylation is believed to be catalyzed by CYP2D6.
# [2] = system: vesicular monoamine transporter-2 (VMAT2); conditions: inhibition of catecholamine uptake by VMAT2, Scherman et al. 1983; cited from earlier work
# [3] = biological target: VMAT2 (rat forebrain homogenate) (Rattus norvegicus (Rat), UniProt Q01827); conditions: radioligand of the VMAT2 binding assay; cited from earlier work
# [4] = In vitro human intestinal S9 hydrolysis assay (formation of compound 1-1); conditions: human intestinal S9, 1 uM, 37° C., up to 60 minutes
# [5] = biological target: VMAT2 (human platelet homogenate) (Homo sapiens (Human), UniProt Q05940); assay: Human VMAT2 Ki, slightly modified competition binding procedure (Table 11); conditions: 10 nM 3H-dihydrotetrabenazine;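 note: competition binding with 90 min incubation at 25 °C, after which filter-retained radioligand was measured by scintillation counting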
# Sequence of VMAT2 (human platelet homogenate) (Q05940 whole entry): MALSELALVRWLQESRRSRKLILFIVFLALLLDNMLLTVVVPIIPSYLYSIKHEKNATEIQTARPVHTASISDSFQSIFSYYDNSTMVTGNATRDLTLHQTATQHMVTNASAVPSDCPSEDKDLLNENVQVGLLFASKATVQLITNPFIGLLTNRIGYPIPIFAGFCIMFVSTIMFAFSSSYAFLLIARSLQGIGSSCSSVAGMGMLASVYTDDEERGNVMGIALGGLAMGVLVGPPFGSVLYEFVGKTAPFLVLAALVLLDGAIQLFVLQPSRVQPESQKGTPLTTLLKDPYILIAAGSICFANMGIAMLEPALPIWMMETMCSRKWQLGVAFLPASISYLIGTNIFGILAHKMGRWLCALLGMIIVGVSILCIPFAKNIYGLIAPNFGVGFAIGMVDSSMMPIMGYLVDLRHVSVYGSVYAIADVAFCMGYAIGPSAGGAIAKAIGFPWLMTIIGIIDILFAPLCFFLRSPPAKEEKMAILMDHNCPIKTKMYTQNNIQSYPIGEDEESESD
# Sequence of VMAT2 (rat forebrain homogenate) (Q01827 whole entry): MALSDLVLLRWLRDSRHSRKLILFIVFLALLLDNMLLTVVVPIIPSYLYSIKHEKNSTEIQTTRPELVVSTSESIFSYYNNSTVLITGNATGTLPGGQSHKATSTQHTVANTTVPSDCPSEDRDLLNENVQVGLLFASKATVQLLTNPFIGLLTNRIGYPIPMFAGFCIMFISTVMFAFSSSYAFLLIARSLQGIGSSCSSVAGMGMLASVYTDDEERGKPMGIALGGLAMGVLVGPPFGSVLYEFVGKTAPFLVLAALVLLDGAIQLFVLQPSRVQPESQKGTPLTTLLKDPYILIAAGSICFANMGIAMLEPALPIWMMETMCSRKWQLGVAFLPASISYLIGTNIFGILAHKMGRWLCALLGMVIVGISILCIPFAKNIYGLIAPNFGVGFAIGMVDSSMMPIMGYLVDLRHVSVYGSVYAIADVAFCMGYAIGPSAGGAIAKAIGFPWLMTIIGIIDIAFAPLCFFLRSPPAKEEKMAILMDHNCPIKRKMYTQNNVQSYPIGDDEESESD
Molecule,S9 Assay (ability to form compound 1-1) [4],Ki [5],also measured
"COc1cc2c(cc1OC)[C@H]1C[C@@H](CO)[C@H](CC(C)C)CN1CC2 [Compound 1-1, [(2R,3S,11bR)-9,10-Dimethoxy-3-(2-methylpropyl)-1H,2H,3H,4H,6H,7H,11bH-pyrido[2,1-a]isoquinolin-2-yl]methanol]",,,primary metabolic pathway [1]: primarily metabolized by glucuronidation
"COc1cc2c(cc1OC)C1CC(O)C(CC(C)C)CN1CC2 [R,R,R-DHTBZ, 3-isobutyl-9,10-dimethoxy-1,3,4,6,7,11b-hexahydro-2H-pyrido[2,1-a]isoquinolin-2-ol, reference compound]",,,primary metabolic pathway [1]: primarily metabolized by demethylation
^3H-dihydrotetrabenezine,,,Kd [3]: 2.6 nM
"COc1cc2c(cc1OC)[C@H]1C[C@@H](COC(=O)[C@@H]3CCCNC3)[C@H](CC(C)C)CN1CC2 [Compound 4-29, [(2R,3S,11bR)-9,10-dimethoxy-3-(2-methylpropyl)-1H,2H,3H,4H,6H,7H,11bH-pyrido[2,1-a]isoquinolin-2-yl]methyl (3R)-piperidine-3-carboxylate]",+++,< 10 nM,

# More lines, main results first:
S9 Assay (ability to form compound 1-1) [4],Ki [5],Molecule,also measured
++,10 to 500 nM,"COc1cc2c(cc1OC)[C@H]1C[C@@H](COC(=O)N[C@@H](CC(C)C)C(=O)O)[C@H](CC(C)C)CN1CC2 [Compound 5-20, (2S)-2-[({[(2R,3S,11bR)-9,10-dimethoxy-3-(2-methylpropyl)-1H,2H,3H,4H,6H,7H,11bH-pyrido[2,1-a]isoquinolin-2-yl]methoxy}carbonyl)amino]-4-methylpentanoic acid]",
+,> 500 nM,"COc1cc2c(cc1OC)[C@H]1C[C@@H](COC(=O)NCCCC(=O)O)[C@H](CC(C)C)CN1CC2 [Compound 5-3, 4-[({[(2R,3S,11bR)-9,10-dimethoxy-3-(2-methylpropyl)-1H,2H,3H,4H,6H,7H,11bH-pyrido[2,1-a]isoquinolin-2-yl]methoxy}carbonyl)amino]butanoic acid]",
